For experiment [1], the target named is Muscarinic acetylcholine receptor. In words: Binding affinity to muscarinic acetylcholine receptor was determined in presence of [3H]OXO-M radioligand (in vitro). In kind it is protein assay.
Experiment [2] has the same target. In words: Binding affinity to muscarinic acetylcholine receptor was determined in presence of [3H]QNB radioligand (in vitro). In kind it is protein assay.
Experiment [3] has as its system Mus musculus. In words: ED50 value determined as oxotremorine antagonism by measuring salivation in mice (in vivo). The class given is functional.
Experiment [4] relates to Mus musculus. In words: ED50 value as cholinergic agonist by measuring salivation in mice (in vivo). The class given is functional.
Experiment [5] relates to Mus musculus. In words: ED50 value determined as oxotremorine antagonism by measuring lacrimation in mice (in vivo). In kind it is functional.
The test system of experiment [6] is Mus musculus. In words: ED50 value as cholinergic agonist by measuring tremors in mice (in vivo). The class given is functional.
In experiment [7] the test system is Mus musculus. In words: ED50 value as cholinergic agonism by measuring lacrimation in mice (in vivo). In kind it is functional.
The subject of experiment [8] is Mus musculus. In words: ED50 value determined as oxotremorine antagonism by measuring tremors in mice (in vivo). The class given is functional.
Experiment [9] addresses Muscarinic acetylcholine receptor (Rattus norvegicus) (UniProt P08482+P08483+P08485+P08911+P10980). In words: Ratio of Ki value for QNB to that of Ki value for Oxo-M. The class given is protein assay.

For orientation: Ki means the equilibrium dissociation constant of an inhibitor or competing ligand from its target. In general, ED50 refers to the midpoint of the dose-response relation.

For the molecule `O=C1CCCN1CC#CCn1cccn1`, the Ki in [1] and in experiment [2] was greater than 10000 nM in each case. Besides, the ED50 in [3], in experiment [4], in experiment [5], in experiment [6], in experiment [7] and in [8] was greater than 100 mg/kg in each case.
Turning to `CC(=O)NCC#CCn1ccnc1`, the results for the Ki in [1] and in [2] were 187 nM and greater than 10000 nM, respectively. Also, the ED50 in experiment [3], in experiment [4], in [5], in experiment [7] and in experiment [8] was greater than 100 mg/kg each time.
Consider `CC(=O)NCC#CCn1cncc1C`, for which the Ki was 213 nM in experiment [1] and greater than 10000 nM in experiment [2]. Further, the ED50 in experiment [3] is 66 mg/kg; in [4] it was greater than 100 mg/kg; in experiment [5], 66 mg/kg; in experiment [7], 66 mg/kg; in experiment [8] it was greater than 100 mg/kg.
For the molecule `CC(=O)N(C)CC#CCn1cncc1C`, the Ki in [1] is listed as 3.61 nM; in experiment [2], 172 nM. Moreover, the ED50 in experiment [3] was greater than 100 mg/kg; in [4], 45 mg/kg; in experiment [5], 6.6 mg/kg; in experiment [6], 5.4 mg/kg; in experiment [8], greater than 100 mg/kg. The Ki ratio in experiment [9] is 48.
Take `O=C1CCCN1CC#CCn1cnc2ccccc21`: the Ki in experiment [1] and in [2] was greater than 10000 nM each time. The ED50 is greater than 100 mg/kg in experiment [3]; greater than 100 mg/kg in [4]; 80 mg/kg in experiment [5]; greater than 100 mg/kg in [6]; greater than 100 mg/kg in [7]; greater than 100 mg/kg in experiment [8].
For `Cc1cncn1CC#CCN1CCN(C)C1=O`, the Ki in experiment [1] was found to be 8.6 nM; in [2] it was 381 nM. Moreover, the median effective dose (ED50) in [3] was greater than 100 mg/kg; in experiment [4], 14 mg/kg; in [5], 14 mg/kg; in [6] it was 2.5 mg/kg; in [8], greater than 100 mg/kg. Further, the Ki ratio in experiment [9] is 44.
For `O=C1NCCN1CC#CCN1CCCC1`, the results for the Ki in [1] and in [2] were 13 nM and 800 nM, respectively. Also, the ED50 in experiment [3], in experiment [4], in experiment [5], in [7] and in [8] was greater than 3 mg/kg each time. In addition, in [9], the Ki ratio was found to be 62.
Take `COC(=O)N(C)C(C)C#CCN(C)C` (stereo not drawn): the inhibitory constant (Ki) is 16 nM in [1] and greater than 10000 nM in experiment [2]. The ED50 was greater than 100 mg/kg in experiment [3]; 17.3 mg/kg in experiment [4]; greater than 100 mg/kg in experiment [5]; 11.8 mg/kg in [6]; 17.3 mg/kg in [7]; greater than 100 mg/kg in experiment [8].
For the molecule `CC(=O)N(C)C(C)C#CCn1cncc1C` (stereo not drawn), the values for the Ki in experiment [1] and in [2] were 10 nM and 184 nM, respectively. Besides, the ED50 in experiment [3] is 3.7 mg/kg; in experiment [4] it was greater than 100 mg/kg; in experiment [5], 1.1 mg/kg; in experiment [6] it was greater than 100 mg/kg; in experiment [7], greater than 100 mg/kg. In addition, the Ki ratio in experiment [9] worked out at 18.
Consider `CCOC(=O)N(C)C(C)C#CCn1ccnc1` (stereo not drawn), for which the figures for the Ki in experiment [1] and in experiment [2] were 273 nM and greater than 10000 nM, respectively. Also, the ED50 was 66 mg/kg in experiment [3]; greater than 100 mg/kg in experiment [4]; 54 mg/kg in experiment [5]; greater than 100 mg/kg in [6]; greater than 100 mg/kg in [7]; greater than 100 mg/kg in [8].
In the case of `CN1CCN(CC#CCN2CCCC2)C1=O`, the Ki in [1] came out at 2.7 nM; in experiment [2] it was 180 nM. In addition, the ED50 in experiment [3] is greater than 3 mg/kg; in experiment [4] it was 0.21 mg/kg; in [5], greater than 3 mg/kg; in [6], 0.14 mg/kg; in [7] it was 0.3 mg/kg. Moreover, the Ki ratio in experiment [9] turned out to be 67.
Regarding `Cc1cncn1CC#CCN(C)C(=O)N(C)C`, the results for the Ki in [1] and in [2] were 82 nM and greater than 10000 nM, respectively. For the same molecule, the ED50 was 11.8 mg/kg in experiment [3]; 9.7 mg/kg in [5]; 45.2 mg/kg in experiment [6]; greater than 100 mg/kg in experiment [7]; greater than 100 mg/kg in [8].
Consider `CN(C)CC#CCN(C)C(=O)N(C)C`, for which the Ki in [1] is recorded as 16 nM; in experiment [2], greater than 10000 nM. For the same molecule, the ED50 in experiment [3] is greater than 100 mg/kg; in [4] it was 8 mg/kg; in [5], greater than 100 mg/kg; in experiment [6], 2 mg/kg; in [7] it was 6.6 mg/kg; in experiment [8], greater than 100 mg/kg.
As to `COC(=O)N(C)CC#CCN(C)C`, the Ki in [1] is given as 19 nM; in experiment [2], greater than 10000 nM. Further, the ED50 in [3] was greater than 30 mg/kg; in experiment [4], 14.3 mg/kg; in experiment [5], greater than 30 mg/kg; in experiment [6], 17.3 mg/kg; in experiment [7], 9.7 mg/kg; in experiment [8], greater than 30 mg/kg.
In the case of `CN1CCN(CC#CCn2ccnc2)C1=O`, the Ki in experiment [1] amounted to 2.1 nM; in [2] it was 1868 nM. Further, the ED50 in experiment [3] was greater than 100 mg/kg; in [4], 1.4 mg/kg; in experiment [5] it was greater than 100 mg/kg; in experiment [6], 0.97 mg/kg; in experiment [7] it was 1.4 mg/kg. Besides, the Ki ratio in [9] came out at 890.
`O=C1NCCN1CC#CCn1ccnc1`: the Ki in [1] was 62 nM; in experiment [2] it was greater than 10000 nM. Further, the ED50 in [3] was greater than 100 mg/kg; in experiment [4], 17.3 mg/kg; in [5] it was greater than 100 mg/kg; in experiment [7], 30 mg/kg; in experiment [8], greater than 100 mg/kg.
As for `CCOC(=O)N(C)CC#CCn1ccnc1`, the Ki was 206 nM in [1] and greater than 10000 nM in experiment [2]. Besides, the ED50 in [3] was 97 mg/kg; in [4], greater than 100 mg/kg; in [5] it was 97 mg/kg; in experiment [6], greater than 100 mg/kg; in experiment [7], greater than 100 mg/kg; in [8], greater than 100 mg/kg.
Regarding `Cc1cn(CC#CCN2CCCC2=O)cn1`, the Ki amounted to 10.3 nM in experiment [1] and 377 nM in [2]. Further, the ED50 in experiment [3] was 37 mg/kg; in experiment [4] it was greater than 100 mg/kg; in [5] it was 14.2 mg/kg; in experiment [7], greater than 100 mg/kg; in experiment [8] it was greater than 100 mg/kg. In addition, the Ki ratio in experiment [9] is 37.
In the case of `CC(=O)N(C)C(C)C#CCn1ccnc1` (stereo not drawn), the Ki is on record as 12 nM in experiment [1] and 1500 nM in [2]. The ED50 in experiment [3] is greater than 100 mg/kg; in [4], 3 mg/kg; in experiment [5] it was greater than 100 mg/kg; in experiment [6], 2 mg/kg; in experiment [7] it was 3 mg/kg. In experiment [9], the Ki ratio came out at 125.
Consider `Cc1cn(CC#CCN2CCCC2=O)c(C)n1`, for which the Ki stood at 68 nM in experiment [1] and 160 nM in [2]. Also, the ED50 in experiment [3] was 14.2 mg/kg; in [4] it was greater than 100 mg/kg; in experiment [5], 8 mg/kg; in experiment [6], greater than 100 mg/kg; in experiment [7], greater than 100 mg/kg. Further, in experiment [9], the Ki ratio was 2.4.
Take `Cn1ccn(CC#CCN2CCCC2)c1=O`: the values for the Ki in experiment [1] and in experiment [2] were 7.1 nM and 510 nM, respectively. The ED50 is greater than 10 mg/kg in experiment [3]; 6.6 mg/kg in experiment [4]; greater than 10 mg/kg in [5]; 3.7 mg/kg in [6]; 6.6 mg/kg in experiment [7]. Further, the Ki ratio in [9] is 72.
For `Cc1cncn1CC#CCN1CCNC1=O`, the Ki in experiment [1] is listed as 138 nM; in experiment [2], greater than 10000 nM. Moreover, the ED50 is 66 mg/kg in experiment [3]; greater than 100 mg/kg in [4]; 21 mg/kg in [5]; greater than 100 mg/kg in experiment [7]; greater than 100 mg/kg in [8].
As to `CN(C)CC#CCN1CCN(C)C1=O`, the Ki in [1] is on record as 4.5 nM; in [2], 180 nM. The 50% effective dose (ED50) in experiment [3] is greater than 10 mg/kg; in [4], 0.54 mg/kg; in experiment [5], greater than 10 mg/kg; in experiment [6] it was 0.37 mg/kg; in experiment [7] it was 0.54 mg/kg. Besides, the Ki ratio in experiment [9] was determined as 40.
Take `CC(=O)N(C)CC#CCN(C)C`: the Ki in experiment [1] is 4.2 nM; in experiment [2] it was greater than 10000 nM. Further, the ED50 in experiment [3] is greater than 10 mg/kg; in experiment [4], 1.73 mg/kg; in experiment [5], greater than 10 mg/kg; in experiment [6], 0.97 mg/kg; in experiment [7], 1.73 mg/kg; in experiment [8], greater than 10 mg/kg.
Consider `O=C1CCCN1CC#CCn1cncn1`, for which the inhibitory constant (Ki) in experiment [1] and in experiment [2] was greater than 10000 nM in each case. Besides, the ED50 in [3], in experiment [4], in experiment [5], in experiment [6], in experiment [7] and in experiment [8] was greater than 100 mg/kg throughout.
`CN(C)C(=O)N(C)CC#CCn1ccnc1`: the Ki in experiment [1] is recorded as 14.6 nM; in experiment [2], greater than 10000 nM. Also, the ED50 was greater than 100 mg/kg in [3]; 25.4 mg/kg in experiment [4]; 11.8 mg/kg in experiment [5]; 11.8 mg/kg in [6]; greater than 100 mg/kg in [8].
As to `Cc1nccn1CC#CCN1CCCC1=O`, the results for the Ki in experiment [1] and in [2] were 0.3 nM and 3.8 nM, respectively. The ED50 is greater than 100 mg/kg in [3]; 0.37 mg/kg in experiment [4]; 0.45 mg/kg in [5]; 0.25 mg/kg in [6]; greater than 100 mg/kg in experiment [8]. For the same molecule, the Ki ratio in experiment [9] turned out to be 13.
`CCc1nccn1CC#CCN1CCCC1=O`: the inhibitory constant (Ki) in [1] is recorded as 29.1 nM; in experiment [2], 56.9 nM. Further, the ED50 is 2.5 mg/kg in experiment [3]; greater than 100 mg/kg in [4]; 0.54 mg/kg in [5]; greater than 100 mg/kg in experiment [6]; greater than 100 mg/kg in [7]. In addition, the Ki ratio in [9] is 2.

For the origin of these results see ChEMBL document CHEMBL1125599, “Cholinergic activity of acetylenic imidazoles and related compounds” (J Med Chem, 1991).
